# Where two headings read alike, the source gives them in different places.
# Tests used:
# [1] = test system: trastuzumab-resistant BT-474/trastuzumab xenografts; assay: Tumor xenograft growth inhibition; format: in vivo, Balb/cA-nude mice
# Experimental: (§1) Female, 5–6-wk-old Balb/cA-nude mice were purchased from Shanghai Laboratory Animal Center, Chinese Academy of Sciences (Shanghai, China). […] Tumor volume was calculated as (length × width^2)/2.
# [2] = test system: A375/DR (dabrafenib-resistant) cells; assay: Cell proliferation assay (SRB); format: cell-based, human; details: for resistance factor (RF): A375/DR versus parental A375
# Experimental: (§2) The following human tumor cell lines were obtained from the American Type Culture Collection (Manassas, VA, USA): breast tumor cell lines, MDA-MB-231, MDA-MB-435, MDA-MB-468, BT-474 and MCF7; lung tumor cell lines, A549 and Calu-3; ovarian tumor cell lines, SK-OV-3 and OVCAR3; colon tumor cell lines, SW620 and COLO205; glioma cell line, U-87MG; prostate tumor cell line, PC-3; and melanoma cell line, A375. All cell lines were cultured according to instructions provided by the American Type Culture Collection. The ovarian tumor cell line A2780 was obtained from the National Cancer Institute (Bethesda, MD, USA) and cultured according to the instructions provided. The dabrafenib- and trametinib-resistant A375 cell lines, A375/DR and A375/TR, respectively, were established by culturing parental cells in medium containing gradually increasing concentrations of dabrafenib (0.1–5,000 nM) or trametinib (0.05–50 nM) over the course of 12 months. […] All the cells have been tested and authenticated by Genesky Biotechnologies. Inc. (Shanghai, China) using fluorescent amplified restriction fragment polymorphism (FAFLP) method.
# (§3) Tumor cells were seeded in 96-well plates and treated with serial dilutions of drugs alone or as a combination of two drugs. After a 72-h incubation, cell proliferation was evaluated by sulforhodamine B (SRB; Sigma) assay. […] The CI value which defines the interaction between two drugs as synergistic (CI < 0.95), additive (CI = 0.95–1.05) or antagonistic (CI > 1.05), was determined on the basis of the median-effect principle using CalcuSyn software.
# [3] = test system: A375/TR (trametinib-resistant) cells; assay: Cell proliferation assay (SRB); format: cell-based, human; details: for resistance factor (RF): A375/TR versus parental A375
# Experimental: as §2, §3
# PC-3 xenografts = assay: Tumor xenograft growth inhibition; format: in vivo, Balb/cA-nude mice; details: 30 mg/kg oral daily, final treatment day
# Experimental: as §1
# U-87MG xenografts = assay: Tumor xenograft growth inhibition; format: in vivo, Balb/cA-nude mice
# Experimental: as §1
# [4] = test system: KRAS mutant A549 xenografts; assay: Tumor xenograft growth inhibition; format: in vivo, Balb/cA-nude mice; details: 15 mg/kg oral daily
# Experimental: as §1
# BT-474 xenografts = assay: Tumor xenograft growth inhibition; format: in vivo, Balb/cA-nude mice
# Experimental: as §1
# [5] = test system: MCF7 and MDA-MB-468 cells; assay: Apoptosis by annexin V-FITC/PI staining and FACS; format: cell-based, human; details: 72 h
# Experimental: (§4) Cells were harvested and fixed in ice-cold 70% ethanol at −20°C overnight. Fixed cells were then treated with 50 μg/mL of propidium iodide and RNase A at 37°C for 30 min. The cell cycle distribution was measured using a FACScan flow cytometer (BD Biosciences, San Jose, CA, USA) and analyzed with ModFit LT Mac V3.0 software. Apoptosis was measured using a FITC Annexin V Apoptosis Detection Kit (BD Biosciences) according to the manufacturer's instructions. Fluorescence was acquired with an Accuri C6 Plus instrument (BD Biosciences).
# [6] = test system: PI3K/mTOR signaling (AKT, S6, ERK phosphorylation); assay: Western blotting of PI3K/mTOR signaling in tumor cell lines; format: cell-based, human
# Experimental: (§5) After drug treatment, cells were lysed in sodium dodecyl sulfate (SDS) sample buffer (100 mM Tris-HCl pH 6.8, 2% SDS, 20% glycerol, 1 mM dithiothreitol). Cell lysates containing equal amounts of protein were resolved by SDS-PAGE and transferred to polyvinylidene difluoride membranes. Blots were probed with primary antibodies, and then incubated with the appropriate secondary antibodies (Millipore). Immunoreactive bands were visualized using enhanced chemiluminescence reagents (Millipore).
# [7] = test system: MCF7, MDA-MB-468, COLO205, and A549 cell lines; assay: Cell cycle distribution by flow cytometry; format: cell-based, human; details: 24 h treatment
# Experimental: as §4
# [8] = test system: panel of human tumor cell lines; assay: Cell proliferation assay (SRB), panel of human tumor cell lines; format: cell-based; details: 72 h
# Experimental: as §2, §3
# A549 cells = assay: Autophagy, LC3 immunoblotting; format: cell-based, human; details: 48 h
# Experimental: as §5
# PI3Kγ = PI3Kγ (Homo sapiens, UniProt P48736); assay: PI3K ELISA (PI3Kinase Activity/Inhibitor Assay Kit); format: biochemical; details: PI3Kγ (p110γ); means ± SD (n = 3)
# Chain of PI3Kγ (P48736 whole entry): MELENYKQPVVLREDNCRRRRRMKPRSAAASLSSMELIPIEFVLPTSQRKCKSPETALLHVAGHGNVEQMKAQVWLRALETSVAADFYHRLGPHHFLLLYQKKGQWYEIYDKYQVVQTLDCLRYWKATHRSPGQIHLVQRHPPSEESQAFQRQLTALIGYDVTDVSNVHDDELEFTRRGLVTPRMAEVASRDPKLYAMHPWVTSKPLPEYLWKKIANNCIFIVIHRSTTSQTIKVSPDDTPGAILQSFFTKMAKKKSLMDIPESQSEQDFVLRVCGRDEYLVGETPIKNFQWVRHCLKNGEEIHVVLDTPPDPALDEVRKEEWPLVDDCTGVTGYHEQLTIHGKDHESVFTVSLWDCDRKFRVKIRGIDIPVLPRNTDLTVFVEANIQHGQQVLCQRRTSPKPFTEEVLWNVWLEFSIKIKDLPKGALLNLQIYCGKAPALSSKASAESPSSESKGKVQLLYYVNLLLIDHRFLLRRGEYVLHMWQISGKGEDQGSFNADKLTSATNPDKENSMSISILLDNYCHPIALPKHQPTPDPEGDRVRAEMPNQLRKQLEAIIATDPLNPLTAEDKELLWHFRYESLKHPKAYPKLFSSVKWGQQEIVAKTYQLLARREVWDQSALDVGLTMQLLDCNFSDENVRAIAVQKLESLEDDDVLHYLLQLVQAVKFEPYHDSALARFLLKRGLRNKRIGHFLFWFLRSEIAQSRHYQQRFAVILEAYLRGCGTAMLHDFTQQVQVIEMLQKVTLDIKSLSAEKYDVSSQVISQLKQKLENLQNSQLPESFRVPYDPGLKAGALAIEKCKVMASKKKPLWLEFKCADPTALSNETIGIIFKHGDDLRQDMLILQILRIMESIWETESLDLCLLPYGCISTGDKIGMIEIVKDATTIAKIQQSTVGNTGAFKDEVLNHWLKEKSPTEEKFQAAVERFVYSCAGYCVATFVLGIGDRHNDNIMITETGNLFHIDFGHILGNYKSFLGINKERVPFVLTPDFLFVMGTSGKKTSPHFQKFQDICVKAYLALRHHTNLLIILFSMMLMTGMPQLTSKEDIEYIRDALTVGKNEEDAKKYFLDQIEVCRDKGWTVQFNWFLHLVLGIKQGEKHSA
# Experimental: (§6) PI3K enzyme-linked immunosorbent assays (ELISAs) were performed using the PI3Kinase Activity/Inhibitor Assay Kit (Millipore, Bedford, MA, USA) according to the manufacturer's instructions as described previously. mTOR kinase activity was assayed using the K-LISA mTOR Activity Kit (Calbiochem, Bedford, MA, USA) according to the manufacturer's instructions.
# PI3Kα = PI3Kα (Homo sapiens, UniProt P42336); assay: as above; format: biochemical; details: PI3Kα (p110α); means ± SD (n = 3)
# Chain of PI3Kα (P42336 whole entry): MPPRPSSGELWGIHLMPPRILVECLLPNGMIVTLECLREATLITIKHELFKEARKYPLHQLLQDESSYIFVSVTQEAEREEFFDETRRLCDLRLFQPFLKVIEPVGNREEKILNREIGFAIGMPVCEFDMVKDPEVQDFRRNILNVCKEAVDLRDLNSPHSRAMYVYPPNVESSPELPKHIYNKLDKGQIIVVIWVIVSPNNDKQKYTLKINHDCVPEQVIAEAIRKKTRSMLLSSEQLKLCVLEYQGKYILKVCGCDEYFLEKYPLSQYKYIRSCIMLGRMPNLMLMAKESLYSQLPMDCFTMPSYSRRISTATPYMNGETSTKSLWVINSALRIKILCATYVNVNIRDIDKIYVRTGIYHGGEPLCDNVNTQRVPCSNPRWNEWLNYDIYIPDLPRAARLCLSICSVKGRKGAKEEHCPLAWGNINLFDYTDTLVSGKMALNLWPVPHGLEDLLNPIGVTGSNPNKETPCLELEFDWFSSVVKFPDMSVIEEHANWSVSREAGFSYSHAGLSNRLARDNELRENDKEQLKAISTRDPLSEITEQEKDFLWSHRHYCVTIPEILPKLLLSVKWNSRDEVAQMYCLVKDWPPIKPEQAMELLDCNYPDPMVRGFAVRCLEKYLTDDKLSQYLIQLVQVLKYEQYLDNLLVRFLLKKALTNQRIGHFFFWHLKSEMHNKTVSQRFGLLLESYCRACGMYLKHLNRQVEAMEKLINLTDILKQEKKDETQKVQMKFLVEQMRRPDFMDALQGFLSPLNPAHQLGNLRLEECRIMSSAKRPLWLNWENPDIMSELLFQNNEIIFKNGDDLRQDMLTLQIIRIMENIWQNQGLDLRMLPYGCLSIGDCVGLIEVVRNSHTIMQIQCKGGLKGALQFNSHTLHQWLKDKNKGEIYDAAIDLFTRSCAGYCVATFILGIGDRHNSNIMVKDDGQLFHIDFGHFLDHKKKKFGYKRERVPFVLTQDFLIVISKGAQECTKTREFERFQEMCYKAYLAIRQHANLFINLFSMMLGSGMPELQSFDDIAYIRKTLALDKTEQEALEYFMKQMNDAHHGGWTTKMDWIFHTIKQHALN
# Chain of PI3Kα (P27986 whole entry partner): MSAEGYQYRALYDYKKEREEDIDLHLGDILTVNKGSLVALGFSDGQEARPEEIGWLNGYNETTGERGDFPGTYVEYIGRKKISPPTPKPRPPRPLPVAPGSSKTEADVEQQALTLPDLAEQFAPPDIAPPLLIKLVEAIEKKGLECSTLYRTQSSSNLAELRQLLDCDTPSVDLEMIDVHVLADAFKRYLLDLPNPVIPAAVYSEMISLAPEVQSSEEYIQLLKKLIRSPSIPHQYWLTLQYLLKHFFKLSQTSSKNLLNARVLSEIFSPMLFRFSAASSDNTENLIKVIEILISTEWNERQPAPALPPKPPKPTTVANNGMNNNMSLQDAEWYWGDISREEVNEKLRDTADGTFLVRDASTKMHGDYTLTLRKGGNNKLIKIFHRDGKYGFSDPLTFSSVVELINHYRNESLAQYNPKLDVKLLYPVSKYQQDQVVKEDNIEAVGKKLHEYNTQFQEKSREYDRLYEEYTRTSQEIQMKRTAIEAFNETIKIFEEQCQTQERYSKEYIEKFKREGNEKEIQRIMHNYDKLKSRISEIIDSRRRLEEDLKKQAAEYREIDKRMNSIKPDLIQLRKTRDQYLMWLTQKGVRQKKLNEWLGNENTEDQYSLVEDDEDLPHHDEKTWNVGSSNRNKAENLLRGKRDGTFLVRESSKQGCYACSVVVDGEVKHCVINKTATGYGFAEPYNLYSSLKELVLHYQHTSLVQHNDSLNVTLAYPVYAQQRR
# Experimental: as §6
# PI3Kβ = PI3Kβ (Homo sapiens, UniProt P42338); assay: as above; format: biochemical; details: PI3Kβ (p110β); means ± SD (n = 3)
# Chain of PI3Kβ (P42338 whole entry): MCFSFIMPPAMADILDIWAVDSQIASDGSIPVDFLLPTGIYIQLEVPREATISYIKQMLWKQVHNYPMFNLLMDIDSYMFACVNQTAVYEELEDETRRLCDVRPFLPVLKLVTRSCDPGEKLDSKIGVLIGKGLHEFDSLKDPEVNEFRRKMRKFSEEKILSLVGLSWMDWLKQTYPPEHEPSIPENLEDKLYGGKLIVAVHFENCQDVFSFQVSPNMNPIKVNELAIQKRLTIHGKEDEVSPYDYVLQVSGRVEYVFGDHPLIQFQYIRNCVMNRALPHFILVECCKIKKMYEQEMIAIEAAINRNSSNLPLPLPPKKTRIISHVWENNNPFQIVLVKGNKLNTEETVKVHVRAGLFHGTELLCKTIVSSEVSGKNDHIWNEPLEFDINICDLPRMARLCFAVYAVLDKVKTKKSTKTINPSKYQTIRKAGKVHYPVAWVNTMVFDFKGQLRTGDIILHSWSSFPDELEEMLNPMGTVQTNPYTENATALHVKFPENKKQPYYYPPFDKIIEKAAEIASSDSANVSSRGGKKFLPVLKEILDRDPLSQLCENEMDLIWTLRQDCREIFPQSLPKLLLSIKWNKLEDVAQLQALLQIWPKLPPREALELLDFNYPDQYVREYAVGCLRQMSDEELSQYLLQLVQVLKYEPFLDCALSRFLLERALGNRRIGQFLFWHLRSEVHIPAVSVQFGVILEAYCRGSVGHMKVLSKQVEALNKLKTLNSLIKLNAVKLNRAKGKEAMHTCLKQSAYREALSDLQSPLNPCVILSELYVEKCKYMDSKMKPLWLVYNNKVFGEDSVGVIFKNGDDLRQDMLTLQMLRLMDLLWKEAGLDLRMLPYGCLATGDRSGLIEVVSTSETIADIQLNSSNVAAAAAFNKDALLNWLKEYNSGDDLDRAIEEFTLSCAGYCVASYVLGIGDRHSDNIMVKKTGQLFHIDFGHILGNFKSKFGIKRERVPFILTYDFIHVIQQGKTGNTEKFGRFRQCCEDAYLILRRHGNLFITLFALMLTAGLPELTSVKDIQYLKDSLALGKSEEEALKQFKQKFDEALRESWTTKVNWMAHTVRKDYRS
# Chain of PI3Kβ (P27986 whole entry partner): as the sequence (P27986 whole entry partner) above
# Experimental: as §6
# PI3Kδ = PI3Kδ (Homo sapiens, UniProt O00329); assay: as above; format: biochemical; details: PI3Kδ (p110δ); means ± SD (n = 3)
# Chain of PI3Kδ (O00329 whole entry): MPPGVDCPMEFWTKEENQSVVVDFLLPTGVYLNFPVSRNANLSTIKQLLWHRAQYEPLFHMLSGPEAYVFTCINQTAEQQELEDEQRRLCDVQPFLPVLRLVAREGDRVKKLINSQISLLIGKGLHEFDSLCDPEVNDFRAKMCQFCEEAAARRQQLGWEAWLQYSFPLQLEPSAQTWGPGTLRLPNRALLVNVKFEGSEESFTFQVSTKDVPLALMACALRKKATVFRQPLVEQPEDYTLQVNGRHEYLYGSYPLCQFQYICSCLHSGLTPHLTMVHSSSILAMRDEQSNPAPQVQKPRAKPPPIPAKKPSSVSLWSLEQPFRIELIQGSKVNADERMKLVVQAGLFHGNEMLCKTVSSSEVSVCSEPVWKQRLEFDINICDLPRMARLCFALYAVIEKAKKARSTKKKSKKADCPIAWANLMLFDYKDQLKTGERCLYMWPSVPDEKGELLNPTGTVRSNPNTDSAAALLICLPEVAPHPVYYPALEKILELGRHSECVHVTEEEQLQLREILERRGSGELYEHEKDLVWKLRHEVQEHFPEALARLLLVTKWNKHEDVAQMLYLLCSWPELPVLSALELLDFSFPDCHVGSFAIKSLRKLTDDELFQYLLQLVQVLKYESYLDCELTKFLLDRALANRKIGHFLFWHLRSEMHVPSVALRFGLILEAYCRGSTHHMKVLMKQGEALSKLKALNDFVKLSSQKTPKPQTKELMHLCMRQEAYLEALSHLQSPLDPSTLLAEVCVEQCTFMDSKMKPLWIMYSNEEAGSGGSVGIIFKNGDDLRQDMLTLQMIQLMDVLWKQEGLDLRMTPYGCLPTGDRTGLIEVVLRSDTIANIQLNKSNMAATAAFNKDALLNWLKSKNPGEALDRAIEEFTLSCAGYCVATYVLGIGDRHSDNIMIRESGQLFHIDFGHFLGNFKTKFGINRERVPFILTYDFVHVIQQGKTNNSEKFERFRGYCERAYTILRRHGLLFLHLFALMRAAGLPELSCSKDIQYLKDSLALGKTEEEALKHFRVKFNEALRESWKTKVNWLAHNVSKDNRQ
# Chain of PI3Kδ (P27986 whole entry partner): as the sequence (P27986 whole entry partner) above
# Experimental: as §6
# A375 cells = assay: Cell proliferation assay (SRB); format: cell-based; details: Homo sapiens, A-375, 72 h
# Experimental: The following human tumor cell lines were obtained from the American Type Culture Collection (Manassas, VA, USA): breast tumor cell lines, MDA-MB-231, MDA-MB-435, MDA-MB-468, BT-474 and MCF7; lung tumor cell lines, A549 and Calu-3; ovarian tumor cell lines, SK-OV-3 and OVCAR3; colon tumor cell lines, SW620 and COLO205; glioma cell line, U-87MG; prostate tumor cell line, PC-3; and melanoma cell line, A375. All cell lines were cultured according to instructions provided by the American Type Culture Collection. The ovarian tumor cell line A2780 was obtained from the National Cancer Institute (Bethesda, MD, USA) and cultured according to the instructions provided. The dabrafenib- and trametinib-resistant A375 cell lines, A375/DR and A375/TR, respectively, were established by culturing parental cells in medium containing gradually increasing concentrations of dabrafenib (0.1–5,000 nM) or trametinib (0.05–50 nM) over the course of 12 months. […]
# as §3
# mTOR = mTOR (Homo sapiens, UniProt P42345); assay: mTOR kinase activity assay (K-LISA mTOR Activity Kit); format: biochemical; details: means ± SD (n = 3)
# Experimental: as §6
# [9] = Pharmacokinetic study in U-87MG tumor-bearing mice; format: in vivo, Balb/cA-nude mice; details: single oral dose 10 mg/kg; for Cmax: female, Balb/cA-nude, mouse
# Experimental: as §1
# Pharmacokinetic/pharmacodynamic studies were carried out as described previously. Mice bearing U-87MG tumors received a single oral dose of 10 mg/kg SHR8443 or vehicle, and tumor tissues and blood were collected at different times. Concentrations of SHR8443 in plasma and tissue were determined by HPLC/tandem mass spectrometry. Tumor samples were analyzed by Western blotting. Animal experiments were conducted in accordance with the Institutional Animal Care and Use Committee guidelines of Shanghai Institute of Materia Medica, Chinese Academy of Sciences.
# [10] = test system: panel of other protein kinases; assay: Panel of other protein kinases; format: biochemical; details: 1000 nM; data not shown
# [11] = Tolerability (deaths, body weight) in xenograft-bearing mice; format: in vivo, Balb/cA-nude mice; details: xenograft-bearing mice during the course of treatment
# Experimental: as §1
# [12] = 30 mg/kg oral daily, final treatment day
smiles,measurement,setting,value
"Cn1c(=O)n(-c2ccc(C(C)(C)C#N)cc2)c2c3cc(-c4cnc5ccccc5c4)ccc3ncc21 [BEZ235, reference compound]",tumor growth inhibition (TGI),[1]; 60 mg/kg oral daily,39%
CC(=O)Nc1cccc(-n2c(=O)n(C3CC3)c(=O)c3c(Nc4ccc(I)cc4F)n(C)c(=O)c(C)c32)c1 [trametinib],resistance factor (RF),[2],45.1
same,resistance factor (RF),[3],39.8
CC(C)(C)c1nc(-c2cccc(NS(=O)(=O)c3c(F)cccc3F)c2F)c(-c2ccnc(N)n2)s1 [dabrafenib],resistance factor (RF),[2],839.2
same,resistance factor (RF),[3],61.0
"CNC(=O)Nc1ccc(-c2ccc3ncc4c(c3c2)n(-c2cccc(C(F)(F)F)c2)c(=O)n4C)cn1 [SHR8443, 1-methyl-3-(5-(3-methyl-2-oxo-1-(3-(trifluoromethyl)phenyl)-2,3-dihydro-1H–imidazo [4,5-c]quinolin-8-yl)pyridin-2-yl) urea]",tumor growth inhibition (TGI),PC-3 xenografts,75%
same,tumor regression,U-87MG xenografts; 30 mg/kg,one of six tumors
same,tumor growth inhibition (TGI),U-87MG xenografts; [12],95%
same,tumor growth inhibition (TGI),[1]; 30 mg/kg oral daily,79%
same,tumor growth inhibition (TGI),[4],86%
same,tumor regression,BT-474 xenografts; 30 mg/kg,one of six tumors
same,tumor growth inhibition (TGI),BT-474 xenografts; [12],87%
same,necrotic/apoptotic cell death,[5],concentration-dependent increase
same,phosphorylation of AKT and S6,"[6]; COLO205 (BRAF mutant), A549 and SW620 (KRAS mutant) cells, 3 h",significantly inhibited
same,level of phosphorylated ERK (pERK),"[6]; COLO205, A549, SW620 cells",No change
same,AKT and S6 phosphorylation,"[6]; MCF7, MDA-MB-468, BT-474 breast cancer cells, 3 h",inhibited
same,reversibility of inhibitory activity after removal from medium,"[6]; MDA-MB-468 cells, 100 nM for 2 h then drug-free medium",reversible
same,"duration of inhibition of AKT, S6K and S6 phosphorylation","[6]; U-87MG cells, 100 nM",at least 48 h
same,cell cycle effect,[7],concentration-dependent G1-phase cell-cycle arrest
same,IC50,"[8]; read-out: IC50 values, proliferation, range over all tested tumor cells",2.9 to 13.9 nM
same,IC50,"[8]; read-out: average (mean) IC50, proliferation, all tested tumor cells",7.5 nM
same,IC50,[8]; read-out: mean IC50 in KRAS/BRAF mutant tumor cells,7.3 nM
same,LC3-II production (autophagy),A549 cells,increased the production of LC3-II in a concentration-dependent manner
same,IC50,PI3Kγ,0.2 ± 0.2 nM
same,IC50,PI3Kα,0.1 nM
same,IC50,PI3Kβ,15.8 ± 3.8 nM
same,IC50,PI3Kδ,0.7 ± 0.2 nM
same,IC50,A375 cells,4.1 nM
same,IC50,mTOR,7.8 ± 1.1 nM
same,Cmax,"[9]; plasma, read-out: Cmax in plasma",735 ng/mL
same,Cmax,"[9]; tumor tissue, read-out: Cmax in tumor tissue",181 ng/g
same,time of Cmax (plasma and tumor tissue),[9],8 h
same,inhibitory activity against a panel of other protein kinases,[10],little inhibitory activity
same,"tolerability (drug-related deaths, body weight loss)",[11],well tolerated
same,IC50,"[2]; Homo sapiens, A-375, A375/DR cells, 72 h, SRB assay",3.4 nM
same,IC50,"[3]; Homo sapiens, A-375, A375/TR cells, 72 h, SRB assay",4.9 nM
